Measured values: ChEMBL document CHEMBL1125394, “Analgesic dipeptide derivatives. 7. 3,7-Diamino-2-hydroxyheptanoic acid (DAHHA) containing dipeptide analogues of the analgesic compound H-Lys-Trp(Nps)-OMe” (J Med Chem, 1992)
Residues, ends and D or L forms follow the SMILES beside them.

Legend:
[1] = molecular target: T1, Aminopeptidase N (Rattus norvegicus, UniProt P15684); assay: (§1) Compound was evaluated for its inhibitory potency against purified membrane bound rat brain Aminopeptidase M using [3H]Leu-enkephalin as substrate; format: functional
T1 sequence (P15684 whole entry): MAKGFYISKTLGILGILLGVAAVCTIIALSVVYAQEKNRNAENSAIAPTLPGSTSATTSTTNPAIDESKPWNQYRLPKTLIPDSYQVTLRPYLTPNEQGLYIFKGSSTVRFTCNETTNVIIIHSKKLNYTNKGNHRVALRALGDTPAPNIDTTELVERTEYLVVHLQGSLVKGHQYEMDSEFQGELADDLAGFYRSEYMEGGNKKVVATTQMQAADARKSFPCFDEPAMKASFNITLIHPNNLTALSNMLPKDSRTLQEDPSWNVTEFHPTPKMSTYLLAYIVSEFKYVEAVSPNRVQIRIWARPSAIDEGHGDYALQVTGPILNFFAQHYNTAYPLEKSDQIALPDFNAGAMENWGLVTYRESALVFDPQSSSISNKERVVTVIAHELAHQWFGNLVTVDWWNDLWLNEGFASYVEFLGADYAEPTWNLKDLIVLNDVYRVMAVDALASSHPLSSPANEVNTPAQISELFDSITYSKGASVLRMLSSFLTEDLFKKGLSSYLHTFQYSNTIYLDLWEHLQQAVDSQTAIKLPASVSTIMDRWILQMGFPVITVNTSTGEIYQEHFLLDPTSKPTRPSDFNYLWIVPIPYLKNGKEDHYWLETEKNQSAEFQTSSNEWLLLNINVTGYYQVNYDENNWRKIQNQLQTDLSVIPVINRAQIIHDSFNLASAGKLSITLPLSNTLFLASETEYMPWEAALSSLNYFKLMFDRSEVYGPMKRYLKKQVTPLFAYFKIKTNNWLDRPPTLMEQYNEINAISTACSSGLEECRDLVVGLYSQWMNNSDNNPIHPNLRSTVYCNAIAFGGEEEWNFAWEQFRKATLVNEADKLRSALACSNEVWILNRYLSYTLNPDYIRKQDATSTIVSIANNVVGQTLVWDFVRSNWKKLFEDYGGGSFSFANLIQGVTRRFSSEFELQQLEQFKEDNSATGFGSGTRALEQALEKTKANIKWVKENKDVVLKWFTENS

[2] = species: Mus musculus; assay: Analgesic response measured as percentage change in reaction time (dose 5 ug given intracervically) after 30 min in mice; format: functional
[3] = species: Mus musculus; assay: Analgesic response measured as percentage change in reaction time (dose 5 ug given intracervically) after 5 min in mice; format: functional
[4] = species: Mus musculus; assay: Analgesic response measured as percentage change in reaction time (dose given intracervically) after 60 min in mice; format: functional
[5] = (§2) Compound was evaluated for its inhibitory potency against purified membrane bound rat brain APs; format: functional
[6] = molecular target: T2, Aminopeptidase B (Rattus norvegicus, UniProt O09175); assay: (§3) Compound was evaluated for its inhibitory potency against purified membrane bound rat brain Aminopeptidase B using L-lysine-beta napthylamide as substrate; format: functional
T2 sequence (O09175 whole entry): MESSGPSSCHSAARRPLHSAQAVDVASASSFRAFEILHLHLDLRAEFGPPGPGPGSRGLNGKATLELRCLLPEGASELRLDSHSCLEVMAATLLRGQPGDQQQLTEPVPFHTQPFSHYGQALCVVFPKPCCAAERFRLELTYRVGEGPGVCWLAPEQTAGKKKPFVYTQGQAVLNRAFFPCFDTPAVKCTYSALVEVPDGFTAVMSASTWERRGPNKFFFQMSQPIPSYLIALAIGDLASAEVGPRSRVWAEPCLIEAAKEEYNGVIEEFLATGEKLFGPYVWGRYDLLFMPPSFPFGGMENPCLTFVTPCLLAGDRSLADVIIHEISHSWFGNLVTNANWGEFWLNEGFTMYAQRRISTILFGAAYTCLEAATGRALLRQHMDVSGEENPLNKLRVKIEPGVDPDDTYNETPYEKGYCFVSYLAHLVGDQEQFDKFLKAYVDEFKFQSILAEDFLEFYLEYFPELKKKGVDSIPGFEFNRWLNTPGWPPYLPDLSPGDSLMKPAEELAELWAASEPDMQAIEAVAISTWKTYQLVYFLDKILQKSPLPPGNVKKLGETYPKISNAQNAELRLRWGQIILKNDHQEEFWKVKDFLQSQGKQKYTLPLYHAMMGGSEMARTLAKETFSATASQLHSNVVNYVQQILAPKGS

[7] = molecular target: T2, Aminopeptidase B; assay: Compound was evaluated for its inhibitory potency against purified membrane bound rat brain Aminopeptidase B (AP-B) using L-lysine-beta napthylamide as substrate
[8] = molecular target: T1, Aminopeptidase N; assay: Compound was evaluated for its inhibitory potency against purified membrane bound rat brain Aminopeptidase M (AP-M) using [3H]Leu-enkephalin as substrate
[9] = species: Mus musculus; assay: Analgesic response measured as percentage change in reaction time (dose 1 ug given intracervically) after 30 min in mice; format: functional
[10] = species: Mus musculus; assay: Analgesic response measured as percentage change in reaction time (dose 1 ug given intracervically) after 5 min in mice; format: functional
[11] = species: Mus musculus; assay: Analgesic response measured as percentage change in reaction time (dose 1 ug given intracervically) after 60 min in mice; format: functional
[12] = species: Mus musculus; assay: Analgesic response measured as percentage change in reaction time (dose 5 ug given intracervically) after 60 min in mice; format: functional
[13] = molecular target: T2, Aminopeptidase B; assay: Inhibitory potency against purified membrane bound rat brain Aminopeptidase B (AP-B) using L-lysine-beta napthylamide as substrate
[14] = molecular target: T1, Aminopeptidase N; assay: Inhibitory potency against purified membrane bound rat brain Aminopeptidase M (AP-M) using [3H]Leu-enkephalin as substrate
[15] = species: Mus musculus; assay: Analgesic response measured as percentage change in reaction time (dose 0.5 ug given intracervically) after 30 min in mice; format: functional
[16] = species: Mus musculus; assay: Analgesic response measured as percentage change in reaction time (dose 0.5 ug given intracervically) after 5 min in mice; format: functional
[17] = species: Mus musculus; assay: Analgesic response measured as percentage change in reaction time (dose 0.5 ug given intracervically) after 60 min in mice; format: functional
[18] = species: Mus musculus; assay: Analgesic response measured as percentage change in reaction time ((dose 1 ug given intracervically) after 60 min in mice; format: functional
[19] = species: Mus musculus; assay: Analgesic response measured as percentage change in reaction time (dose 10 ug given intracervically) after 30 min in mice; Signs of strong neurotoxicity; format: functional, organism-based
[20] = species: Mus musculus; assay: Analgesic response measured as percentage change in reaction time (dose 10 ug given intracervically) after 60 min in mice; Signs of strong neurotoxicity; format: functional, organism-based
[21] = species: Mus musculus; assay: Analgesic response measured as percentage change in reaction time (dose 10 ug given intracervically) after 5 min in mice; format: functional
[22] = molecular target: T2, Aminopeptidase B; assay: as §3
[23] = molecular target: T1, Aminopeptidase N; assay: as §1
[24] = molecular target: T2, Aminopeptidase B; assay: Inhibitory potency against purified membrane bound rat brain Aminopeptidase B using L-lysine-beta napthylamide as substrate; format: functional
[25] = molecular target: T1, Aminopeptidase N; assay: Inhibitory potency against purified membrane bound rat brain Aminopeptidase M using [3H]Leu-enkephalin as substrate; format: functional
[26] = as §2; format: tissue-based
[27] = species: Mus musculus; assay: Analgesic response measured as percentage change in reaction time (dose 25 ug given intracervically) after 30 min in mice; format: functional
[28] = species: Mus musculus; assay: Analgesic response measured as percentage change in reaction time (dose 25 ug given intracervically) after 5 min in mice; format: functional
[29] = species: Mus musculus; assay: Analgesic response measured as percentage change in reaction time (dose 25 ug given intracervically) after 60 min in mice; format: functional
[30] = species: Mus musculus; assay: Analgesic response measured as percentage change in reaction time (dose 100 ug given intracervically) after 30 min in mice; format: functional
[31] = species: Mus musculus; assay: Analgesic response measured as percentage change in reaction time (dose 100 ug given intracervically) after 5 min in mice; format: functional
[32] = species: Mus musculus; assay: Analgesic response measured as percentage change in reaction time (dose 100 ug given intracervically) after 60 min in mice; format: functional

SMILES	IC50 [1]	Change [2]	Change [3]	IC50 [6]	IC50 [7]	IC50 [8]	Change [9]	Change [10]	Change [12]	also measured
COC(=O)[C@H](Cc1c[nH]c2ccccc12)NC(=O)[C@@H](O)[C@H](N)CCCCN.Cl.Cl	10.2 µM	17%	<60%	> 1000 µM	–	–	–	–	–	Change [4]: 14%; IC50 [5]: 0.21 µM
COC(=O)[C@@H](Cc1c(Sc2ccccc2[N+](=O)[O-])[nH]c2ccccc12)NC(=O)[C@H](O)[C@@H](N)CCCCN	–	75%	59%	–	982 µM	225 µM	21%	19%	55%	Change [11]: -1%
COC(=O)[C@H](Cc1c(Sc2ccccc2[N+](=O)[O-])[nH]c2ccccc12)NC(=O)C(O)[C@@H](N)CCCCN (some centres undefined)	–	64%	75%	–	–	–	15%	25%	43%	IC50 [13]: 583 µM; IC50 [14]: 852 µM; Change [11]: -8%
COC(=O)[C@H](Cc1c(Sc2ccccc2[N+](=O)[O-])[nH]c2ccccc12)NC(=O)[C@@H](N)CCCCN	261 µM	–	–	400 µM	–	–	<60%	<130%	–	Change [11]: 35%; Change [15]: <40%; Change [16]: <80%; Change [17]: 20%; IC50 [5]: 18 µM
COC(=O)[C@H](Cc1c(Sc2ccccc2[N+](=O)[O-])[nH]c2ccccc12)NC(=O)[C@@H](O)[C@H](N)CCCCN	–	80%	146%	–	101 µM	7 µM	63%	124%	74%	Change [18]: 47%; Change [19]: Signs of strong neurotoxicity; Change [20]: Signs of strong neurotoxicity; Change [21]: 243%
COC(=O)[C@H](Cc1c[nH]c2ccccc12)NC(=O)[C@@H](O)[C@@H](N)CCCCN.COC(=O)[C@H](Cc1c[nH]c2ccccc12)NC(=O)[C@H](O)[C@@H](N)CCCCN	> 1000 µM	19%	26%	500 µM	–	–	–	–	-4%	–
COC(=O)[C@H](CC(C)C)NC(=O)[C@@H](O)[C@@H](N)CCCCN.COC(=O)[C@H](CC(C)C)NC(=O)[C@H](O)[C@@H](N)CCCCN	–	10%	-1%	–	500 µM	> 1000 µM	–	–	15%	–
COC(=O)[C@H](CC(C)C)NC(=O)[C@@H](O)[C@H](N)CCCCN	–	21%	<62%	–	–	–	–	–	23%	IC50 [22]: 481 µM; IC50 [23]: 201 µM
COC(=O)[C@@H](Cc1c(Sc2ccccc2[N+](=O)[O-])[nH]c2ccccc12)NC(=O)C(O)[C@H](N)CCCCN (some centres undefined)	–	56%	80%	–	486 µM	91.2 µM	13%	19%	37%	Change [11]: -2%
COC(=O)[C@@H](Cc1c[nH]c2ccccc12)NC(=O)[C@H](O)[C@@H](N)CCCCN	> 1000 µM	-1%	22%	> 1000 µM	–	–	–	–	2%	–
COC(=O)[C@@H](Cc1c[nH]c2ccccc12)NC(=O)[C@@H](O)[C@@H](N)CCCCN	> 1000 µM	10%	-1%	> 1000 µM	–	–	–	–	15%	–
COC(=O)[C@H](Cc1c[nH]c2ccccc12)NC(=O)[C@H](O)[C@H](N)CCCCN	502 µM	–	–	> 1000 µM	–	–	–	–	–	IC50 [5]: 45.5 µM
COC(=O)[C@@H](Cc1c[nH]c2ccccc12)NC(=O)[C@@H](O)[C@H](N)CCCCN.COC(=O)[C@@H](Cc1c[nH]c2ccccc12)NC(=O)[C@H](O)[C@H](N)CCCCN	–	1%	10%	–	–	–	–	–	5%	IC50 [24]: > 1000 µM; IC50 [25]: 826 µM
NCCCC[C@H](N)C(=O)N[C@@H](Cc1c[nH]c2ccccc12)C(=O)O (H-Lys-Trp-OH)	–	–	–	–	> 1000 µM	> 1000 µM	–	–	–	–
CC(C)C[C@H](NC(=O)[C@@H](O)[C@H](N)Cc1ccccc1)C(=O)O [UBENIMEX]	–	–	–	–	–	–	–	–	–	IC50 [26]: 0.3 µM; IC50 [22]: 6 µM; IC50 [23]: 19.4 µM; Change [27]: 3%; Change [28]: 26%; Change [29]: -3%; Change [30]: 41%; Change [31]: 11%; Change [32]: 59%
